Patent US8937044B2, “Process for the synchronization of ovulation for timed breeding without heat detection” (priority 2003, dated 2015)

What was measured:
Assay type in all cases: in vivo, swine
LH = LH response (RIA) in ovariectomized estrogen primed gilt model, dose response study; settings: single injection of 50 mcg in SAIB
Protocol: A dose response study was performed using deslorelin in SAIB in an ovariectomized estrogen primed gilt model (Barb, et al. (1999) Proceed. Int'l. Symp. Control. Rel. Bioact. Mater., 26).

postpartum sows [1] = assay: Timed deslorelin injection 96 h post-weaning and single timed insemination without estrus detection (Example 3)
Protocol: (§1) Approximately 170 postpartum sows were randomly divided into two equal groups comprised of controls and treated. Following weaning, the controls were detected for estrus and bred following the normal standard operating procedures for the farms on which they resided. The treated sows received a 50 mcg dose of deslorelin in SAIB at 96 hours post-weaning and were bred with a single insemination 28+/−2 hours later with no regard to estrus detection. The sows were examined for pregnancy by ultrasound at 21 days and slaughtered around 28 days post breeding. The entire reproductive tract was removed and corpora lutea and embryos were counted.

mature postpartum sows = assay: Deslorelin at first detected estrus in postpartum sows, AI breeding (Example 2)
Protocol: Sows were assigned randomly in blocks of two to either control or to be injected intravulvar with 50 mcg of deslorelin in SAIB at the time of estrus detection for sows first detected in estrus in the a.m. and 12 hours later for those first detected in estrus in the p.m. Treated animals were bred AI upon detected estrus and again 24 hours later if still in estrus. Controls received a saline injection on first detected estrus behavior estrus detection and were bred according to the farm's normal procedures.

postpartum sows [2] = assay: Litter size after deslorelin treatment in sows, three farm sites (Example 4); settings: Tables 3-5, three sites, regardless of estrus detection
From the text: Postpartum sows were randomly distributed into three different groups comprised of Controls, Treatment 1, and Treatment 2, with the exception of Site 3, which was divided into two groups, Control and Treatment 2. Control sows were detected for estrus following weaning, and bred following the normal standard operating procedures for the farms on which they resided. Treatment 1 sows were detected for estrus following weaning, and received a 50 mcg dose of deslorelin in the morning when standing and were bred by AI 4 hours later and again at 24+/−2 hours later. Treatment 2 sows received a 50 mcg dose of deslorelin in SAIB at 96 or 120 hours post-weaning and were bred with a single insemination 28+/−2 hours later with, no regard to estrus detection.

postpartum sows [3] = assay: Pregnancy rate after deslorelin treatment in sows, summary of Tables 2-5; settings: Table 6 summary
Protocol: as §1, with “counted. Postpartum sows were randomly distributed into three different groups comprised of Controls, Treatment 1, and Treatment 2, with the exception of Site 3, which was divided into two groups, Control and Treatment 2. Control sows were detected for estrus following weaning, and bred following the normal standard operating procedures for the farms on which they resided. Treatment 1 sows were detected for estrus following weaning, and received a 50 mcg dose of deslorelin in the morning when standing and were bred by AI 4 hours later and again at 24+/−2 hours later. Treatment 2 sows received a 50 mcg dose of deslorelin in SAIB at 96 or 120 hours post-weaning and were bred with a single insemination 28+/−2 hours later with, no regard to estrus detection.” for “counted.”

In the case of `CCNC(=O)[C@@H]1CCCN1C(=O)[C@H](CCCN=C(N)N)NC(=O)[C@H](CC(C)C)NC(=O)[C@@H](Cc1c[nH]c2ccccc12)NC(=O)[C@H](Cc1ccc(O)cc1)NC(=O)[C@H](CO)NC(=O)[C@H](Cc1c[nH]c2ccccc12)NC(=O)[C@H](Cc1cnc[nH]1)NC(=O)[C@@H]1CCC(=O)N1` [Deslorelin, deslorelin], the “time at which LH returned to base level” value (LH) is reported as at most 18 h, the “LH peak relative to normal value” (LH; normal value from Hansel et al. 1973) is reported as “about twice normal value” and the “Embryo Survival” value (postpartum sows [1]; 50 mcg in SAIB 96 h post-weaning, single insemination 28+/-2 h later) is reported as 64%. For the same compound, the “Sows Pregnant” value (postpartum sows [1]; 50 mcg in SAIB 96 h post-weaning, single insemination 28+/-2 h later, 84 sows in group) was 60, the “Pregnancy Rate” value (postpartum sows [1]; 50 mcg in SAIB 96 h post-weaning, single insemination 28+/-2 h later, no estrus detection) was 71% and the “pregnancy rates (in words)” value (postpartum sows [1]; single timed injection in SAIB post-weaning, single timed insemination, no estrus detection) was “normal pregnancy rates were attained”. For the same compound, the “Pregnancy Rate” value (mature postpartum sows; 50 μg deslorelin acetate (1 ml) intravulvar at first estrus detection, AI, again next day if in estrus, n = 75) was 91%, the “pregnancy rates, Control versus Treated (in words)” value (mature postpartum sows; 50 mcg in SAIB intravulvar at estrus detection) was “no significant difference” and the “litter sizes (in words)” value (postpartum sows [2]) was “normal litter sizes”. For the same compound, the “pregnancy rates (in words)” value (postpartum sows [3]) was “normal pregnancy rates were obtained”.
